From US20140024030A1, “PRESELECTION OF SUBJECTS FOR THERAPEUTIC TREATMENT WITH OXYGEN SENSITIVE AGENTS BASED IN HYPOXIC STATUS” (priority 2010, published 2014)
Where two headings read alike, the source gives them in different places.

Experiments:
[1] = tested on: advanced pancreatic cancer; details: Phase III, combination with Gemcitabine; cited from earlier work
[2] = tested on: advanced pancreatic cancer; details: Phase II, combination chemotherapy with Gemcitabine; cited from earlier work
[3] = tested on: phosphorylated RPS6 (ribosomal protein S6); details: TSC1-deficient cells; cited from earlier work
[4] = tested on: HCT116 human colon carcinoma xenograft; assay: HCT116 xenograft model in nude mice (hypoxic tumor); type: in vivo; details: for efficacy at slowing tumor growth in HCT116 (high hypoxia) versus 786O (low hypoxia) tumors: comparison of HCT116 and 786O xenografts in nude mice
[5] = tested on: 786-O human renal carcinoma xenograft; assay: 786-O xenograft model in nude mice (low hypoxia tumor); type: in vivo
Description: Human tumor cell lines HCT116 (ATCC #CRL-247; Schroy P C, et al. Cancer 76: 201-209, 1995) and 786-O (ATCC #CRL-1932; Williams R D, et al. In Vitro 12: 623-627, 1976), were obtained from the American Type Culture Collection (Manassus, Va., USA) were cultured using routine methods until a sufficient number of cells were obtained for implantation. Studies were conducted on animals between 7 and 12 weeks of age at implantation. To implant HCT116 tumor cells into nude mice, the cells were trypsinized, washed in PBS and resuspended at a concentration of 75×10^6 cells/ml in McCoy's modified medium with 50% of BD Matrigel® Basement Membrane Matrix (BD Biosciences®, Bedford, Mass., USA). To implant 786-O tumor cells into nude mice, the cells were trypsinized as above, washed in PBS and resuspended at a concentration of 75×10^6 cells/ml in RPMI 1640 medium with 50% of BD Matrigel® Basement Membrane Matrix. Using a 27 gauge needle and 1 cc syringe, 0.1 ml of the cell suspension was injected into the corpus adiposum of nude mice. The corpus adiposum is a fat body located in the ventral abdominal vicera in the right quadrant of the abdomen at the juncture of the os coxae (pelvic bone) and the os femoris (femur). The location permits palpation and measurement of the tumors using external calipers. Tumor volumes (V) were calculated by caliper measurement of the width (W), length (L) and thickness (T) of tumors using the following formula: V=0.5236×(L×W×T). Animals were randomized into treatment groups so that the average tumor volumes of each group were similar at the start of dosing.
A tumor model in which the tumors have relatively high and low levels of LDH5, indicating high and low levels of hypoxia, using human tumor cell lines HCT116 and 786-O was established as set forth in the previous example.
As above, HCT116 and 786-O cells were cultured and implanted into nude mice using the methods in the previous example. Tumor growth was measured using calipers. Prior to treatment with the various agents, tumors were permitted to develop in vivo until they reached approximately 150 mm^3 in volume, which typically required 2-3 weeks following implantation. Animals were randomized into treatment groups so that the average tumor volumes of each group were similar at the start of dosing.
Tumor volume was monitored throughout the course of the study, until up to about 40 days from the date of tumor implantation. The exact number of days of the study depended on a number of factors including, for example, the number of days from implantation for the tumors to reach the desired volume.

[6] = tested on: pancreatic cancer; details: PTK787 orally daily with gemcitabine, cited from earlier work
[7] = tested on: metastatic colorectal cancer (mCRC); details: cited from earlier work
[8] = tested on: mCRC pretreated with 5-FU/irinotecan; details: cited from earlier work
[9] = tested on: metastatic colorectal cancer (mCRC); details: cited from earlier work; remark: listed apart in the source
[10] = tested on: locally advanced, unresectable or metastatic pancreatic cancer; details: 100 mg cohort, arms: gemcitabine plus erlotinib vs gemcitabine alone, cited from earlier work
[11] = tested on: hepatocellular carcinoma; details: cited from earlier work
[12] = tested on: metastatic malignancies including renal cell carcinoma; details: cited from earlier work
[13] = tested on: advanced renal cell carcinoma; details: cited from earlier work
[14] = tested on: renal cell carcinoma cell lines; details: in vitro; cited from earlier work
[15] = tested on: renal cell carcinoma (RCC); details: 140 subjects with elevated LDH; temsirolimus vs interferon; log-rank p<0.005; cited from earlier work
[16] = tested on: advanced renal cell carcinoma (RCC); details: cited from earlier work; for progression-free survival: P=0.0001
[17] = tested on: renal cancer; details: arms: bevacizumab and interferon-alpha vs interferon-alpha alone; cited from earlier work
[18] = tested on: treatment-naïve RCC; details: final analysis; arms: sunitinib vs IFN-α; cited from earlier work
[19] = arms: temsirolimus alone vs interferon-alpha

Compound: CNC(=O)c1ccccc1Sc1ccc2c(/C=C/c3ccccn3)n[nH]c2c1 [Axitinib, N-Methyl-2-[[3-[(E)-2-pyridin-2-ylethenyl]-1H-indazol-6-yl]sulfanyl]benzamide]
- survival rates versus Gemcitabine alone [1]: no evidence of improved survival rates
- response [2]: good response

Compound: Cn1c(=O)n(-c2ccc(C(C)(C)C#N)cc2)c2c3cc(-c4cnc5ccccc5c4)ccc3ncc21 [BEZ235]
- levels of phosphorylated RPS6 [3]: significantly reduce the levels of phosphorylated RPS6
- efficacy at slowing tumor growth in HCT116 (high hypoxia) versus 786O (low hypoxia) tumors [4]: not found to work better in the tumors with a higher level of hypoxia

Compound: Clc1ccc(Nc2nnc(Cc3ccncc3)c3ccccc23)cc1 [PTK787, N-(4-chlorophenyl)-4-(pyridin-4-ylmethyl)phthalazin-1-amine]
- tumor burden versus control ([5]; 50 mg/kg 5x/week P.O., p=0.7805): no difference in tumor burden
- tumor burden versus control ([5]; XL765 study (FIG. 4B), 30 mg/kg 5x/week P.O., p=0.7682): no difference in tumor burden
- tumor burden versus control ([5]; erlotinib study (FIG. 5B), 1x/week P.O., p=0.8548): no difference in tumor burden
- duration of stable disease [6]: 2-6 months
- patients with stable disease as the best response ([6]; six of eleven patients): 55%
- PFS HR ([7]; CONFIRM 1 - High LDH, N 316, PTK787 1250 mg/day vs placebo): 0.61
- PFS HR ([7]; CONFIRM 1 - Low LDH, N 852): 0.93
- PFS HR ([8]; CONFIRM 2 - High LDH, N 250, PTK787 1250 mg/day vs placebo): 0.63
- PFS HR ([8]; CONFIRM 2 - Low LDH, N 605): 0.95
- PFS HR ([9]; All CONFIRM 1 & 2 High LDH Patients, N 566): 0.62
- PFS HR ([9]; All CONFIRM 1 & 2 Patients, N 2023): 0.82
- tumor growth versus control ([4]; 50 mg/kg 5x/week P.O., p=0.1209): reduced the growth of the tumor as compared to control
- efficacy at slowing tumor growth in HCT116 (high hypoxia) versus 786O (low hypoxia) tumors [4]: more effective at slowing tumor growth in tumors with high levels of hypoxia

Compound: COc1cc(Nc2nc3ccccc3nc2NS(=O)(=O)c2ccc(NC(=O)c3ccc(C)c(OC)c3)cc2)cc(OC)c1 [XL765]
- tumor growth rate versus control ([4]; XL765 30 mg/kg 5x/week P.O., p=0.009): reduced the growth rate of the tumor as compared to control
- efficacy at slowing tumor growth in HCT116 (high hypoxia) versus 786O (low hypoxia) tumors [4]: more effective at slowing tumor growth in tumors with high levels of hypoxia

Compound: Nc1ccn([C@@H]2O[C@H](CO)[C@@H](O)C2(F)F)c(=O)n1 [gemcitabine]
- progression free survival ([10]; p=0.006): 3.5 months
- survival ([10]; p=0.028): 6.0 months

Compound: CNC(=O)c1cc(Oc2ccc(NC(=O)Nc3ccc(Cl)c(C(F)(F)F)c3)cc2)ccn1 [sorafenib]
- disease control rate (DCR) ([11]; disease stabilization for at least 28 days): 43.48%
- time to progression HR ([11]; independent radiological review, sorafenib vs placebo, p=0.000007): 0.58
- overall survival HR ([11]; sorafenib 400 mg twice daily vs placebo, p=0.00058): 0.69
- progression free rate ([12]; at 24 weeks, p=0.0077): 50%
- progression free survival HR ([12]; sorafenib vs placebo): 0.29
- median progression free survival ([13]; 769 patients, sorafenib 400 mg twice daily (N=384)): 167 days
- estimated improvement in overall survival vs placebo ([13]; as of 30 Nov. 2005, 367 deaths): 30%
- median PFS ([13]; patients with no prior IL-2 or interferon therapy (N=137)): 172 days
- median overall survival ([13]; sorafenib 400 mg twice daily, 367 deaths): 19.3 months
- progression free survival HR ([13]; sorafenib vs placebo, p<0.000001): 0.44
- efficacy at slowing tumor growth in HCT116 (high hypoxia) versus 786O (low hypoxia) tumors [4]: not found to work better in the tumors with a higher level of hypoxia

Compound: CO[C@H]1C[C@@H]2CC[C@@H](C)[C@@](O)(O2)C(=O)C(=O)N2CCCC[C@H]2C(=O)O[C@H]([C@H](C)C[C@@H]2CC[C@@H](OC(=O)C(C)(CO)CO)[C@H](OC)C2)CC(=O)[C@H](C)/C=C(\C)[C@@H](O)[C@@H](OC)C(=O)[C@H](C)C[C@H](C)/C=C/C=C/C=C/1C [temsirolimus]
- activity of mTOR [14]: inhibited the activity of mTOR
- levels of HIF-1, HIF-2 alpha and VEGF [14]: reduced levels of the hypoxia-inducible factors HIF-1 and HIF-2 alpha, and the vascular endothelial growth factor
- survival [15]: 6.9 months
- progression-free survival [16, 19]: 5.5 months
- overall survival versus interferon-alpha alone ([16]; combination of temsirolimus and interferon-alpha): did not result in a significant increase in overall survival
- increase in median overall survival ([16]; temsirolimus compared to interferon-alpha): 49%
- efficacy at slowing tumor growth in HCT116 (high hypoxia) versus 786O (low hypoxia) tumors [4]: not found to work better in the tumors with a higher level of hypoxia

Compound: interferon-alpha
- patients with decreased tumor size [17]: 12%
- survival [15]: 4.2 months
- progression-free survival [16, 19]: 3.1 months
- median overall survival ([16]; arms: temsirolimus alone vs interferon-alpha, P=0.0078): 7.3 months
- median OS [18]: 94.9 weeks
